Data on 19 compounds can be found in US10219516B2, “Molecules having pesticidal utility, and intermediates, compositions, and processes, related thereto” (priority 2015, dated 2019).

Common to all, as to format: in vivo
Assay [1] has as its system Beet Armyworm (Spodoptera exigua, LAPHEG). Description: Bioassay on Beet Armyworm (BAW), 128-well diet tray assay. The method, boiled down:
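Diet in each of eight wells received 50 μg/cm^2 of test molecule (90:10 acetone-water, dried), then one to five second-instar larvae were added. Mortality (%) was scored after five to seven days at 25° C. under 14:10 light-dark and averaged across the wells.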

Assay [2] has as its system Cabbage Looper (Trichoplusia ni, TRIPNI). The experiment in a line: Bioassay on Cabbage Looper (CL), 128-well diet tray assay. The settings on record: Trichoplusia ni. An outline of the steps:
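Diet-incorporation-free surface assay: 50 μg/cm^2 compound in acetone-water (90:10), dried on diet; 1–5 2nd-instar larvae/well; 8 wells; vented cover; 25° C., 14:10 L:D, 5–7 d; % mortality averaged over wells.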

Assay [3] relates to Yellow Fever Mosquito (Aedes aegypti, AEDSAE). The experiment in a line: Bioassay on Yellow Fever Mosquito (YFM), 96-well plate larval assay. The settings on record: for YFM rating: Yellow Fever Mosquito, 96-well plate larval assay; for YFM (Biological Results, rating): Species YFM (Yellow Fever Mosquito). The procedure: Certain molecules disclosed in this document were tested against YFM using procedures described in the following paragraph. In the reporting of the results, the “GPA & YFM Rating Table” was used (See Table Section).
Master plates containing 400 μg of a molecule dissolved in 100 μL of dimethyl sulfoxide (DMSO) (equivalent to a 4000 ppm solution) are used. A master plate of assembled molecules contains 15 μL per well. To this plate, 135 μL of a 90:10 water/acetone mixture is added to each well. A robot is programmed to dispense 15 μL aspirations from the master plate into an empty 96-well shallow plate (“daughter” plate). There are 6 reps (“daughter” plates) created per master. The created “daughter” plates are then immediately infested with YFM larvae.
The day before plates are to be treated, mosquito eggs are placed in Millipore water containing liver powder to begin hatching (4 g. into 400 mL). After the “daughter” plates are created using the robot, they are infested with 220 μL of the liver powder/larval mosquito mixture (about 1 day-old larvae). After plates are infested with mosquito larvae, a non-evaporative lid is used to cover the plate to reduce drying. Plates are held at room temperature for 3 days prior to grading. After 3 days, each well is observed and scored based on mortality. The results are indicated in the table entitled “Table ABC: Biological Results” (See Table Section).

Where [4] appears, read: Beet Armyworm, 128-well diet tray assay, read-out: BAW rating.
Where [5] appears, read: Cabbage Looper, 128-well diet tray assay, read-out: CL rating.
Setting [6] is: Species BAW (Beet Armyworm), read-out: BAW (Biological Results, rating).
Where [7] appears, read: Species CL (Cabbage Looper), read-out: CL (Biological Results, rating).

Read-outs that look alike come from different tables or passages of the source.

For `Nc1cc(F)c(NC(=O)c2cc(NC(=O)[C@H]3[C@H](c4cc(Cl)cc(Cl)c4)C3(Cl)Cl)ccc2Cl)cc1F` [F568, trans-N-(4-Amino-2,5-difluorophenyl)-2-chloro-5-((1R,3R)-2,2-dichloro-3-(3,5-dichlorophenyl)cyclopropane-1-carboxamido)benzamide], the pest or weed control at 50 µg/cm2 in assay [1] (setting [4]) and in assay [2] (setting [5]) was 50 to 100% each time. Moreover, the YFM rating entry in assay [3] is “A (80-100)”.
Regarding `O=C(Nc1nc2c(Cl)cccc2s1)c1cc(NC(=O)C2C(c3cc(Cl)cc(Cl)c3)C2(Cl)Cl)ccc1Cl` (stereo not drawn) [F443, 2-Chloro-N-(4-chlorobenzo[d]thiazol-2-yl)-5-(trans)-2,2-dichloro-3-(3,5-dichlorophenyl)cyclopropane-1-carboxamido)benzamide], the pest or weed control at 50 µg/cm2 in assay [1] (setting [4]) and in assay [2] (setting [5]) was 50 to 100% each time. Besides, the YFM rating result in assay [3] is “B (More than 0-Less than 80)”.
On to `CN(C(=O)c1cc(NC(=O)[C@H]2[C@H](c3cc(Cl)c(Cl)c(Cl)c3)C2(Cl)Cl)ccc1Cl)c1ccc(F)cc1C#N` (relative stereo) [F244, trans-2-Chloro-N-(2-cyano-4-fluorophenyl)-5-(2,2-dichloro-3-(3,4,5-trichlorophenyl)cyclopropane-1-carboxamido)-N-methylbenzamide], for which the pest or weed control at 50 µg/cm2 in assay [1] (setting [6]) and in assay [2] (setting [7]) was 50 to 100% each time. In assay [3], the “YFM (Biological Results, rating)” value is on record as “A (80-100)”.
Consider `N#Cc1cc(Cl)cc([C@H]2[C@H](C(=O)Nc3ccc(Cl)c(C(=O)Nc4ccc(F)cc4C#N)c3)C2(Cl)Cl)c1` (relative stereo) [F343, trans-2-Chloro-N-(2-cyano-4-fluorophenyl)-5-(2,2-dichloro-3-(3-chloro-5-cyanophenyl)cyclopropane-1-carboxamido)benzamide], for which the pest or weed control at 50 µg/cm2 in assay [1] (setting [6]) and in assay [2] (setting [7]) was 50 to 100% in each case. For the same compound, the “YFM (Biological Results, rating)” value in assay [3] is “A (80-100)”.
As to `COc1nccc(NC(=O)c2cc(NC(=O)[C@H]3[C@H](c4cc(Cl)cc(Cl)c4)C3(Cl)Cl)ccc2Cl)c1Cl` (relative stereo) [F546, 2-Chloro-N-(3-chloro-2-methoxypyridin-4-yl)-5-(trans-2,2-dichloro-3-(3,5-dichlorophenyl)cyclopropane-1-carboxamido)benzamide], the pest or weed control at 50 µg/cm2 in assay [1] (setting [4]) and in assay [2] (setting [5]) was 50 to 100% throughout. Also, the YFM rating result in assay [3] was “A (80-100)”.
Regarding `O=C(Nc1ccc(NC(=O)C2CC2)cc1)c1cc(NC(=O)[C@H]2[C@H](c3cc(Cl)cc(Cl)c3)C2(Cl)Cl)ccc1Cl` (relative stereo) [PF107, trans-2-Chloro-N-(4-(cyclopropane-1-carboxamido)phenyl)-5-(2,2-dichloro-3-(3,5-dichlorophenyl)cyclopropane-1-carboxamido)benzamide], the pest or weed control at 50 µg/cm2 in assay [1] (setting [4]) and in assay [2] (setting [5]) was 50 to 100% in each case. Also, the YFM rating entry in assay [3] is on record as “A (80-100)”.
On to `O=C(Nc1cc2ocnc2cc1F)c1cc(NC(=O)C2C(c3cc(Cl)cc(Cl)c3)C2(Cl)Cl)ccc1Cl` (stereo not drawn) [F453, 2-Chloro-5-(trans)-2,2-dichloro-3-(3,5-dichlorophenyl)cyclopropane-1-carboxamido)-N-(5-fluorobenzo[d]oxazol-6-yl)benzamide], for which the pest or weed control at 50 µg/cm2 in assay [1] (setting [4]) and in assay [2] (setting [5]) was 50 to 100% in each case. The YFM rating result in assay [3] is recorded as “A (80-100)”.
Consider `O=C(Nc1ccc(F)cc1F)c1cc(NC(=O)[C@H]2[C@H](c3ccc(Cl)c(Br)c3)C2(Cl)Cl)ccc1Cl` [F572, 5-((1R,3R)-3-(3-Bromo-4-chlorophenyl)-2,2-dichlorocyclopropane-1-carboxamido)-2-chloro-N-(2,4-difluorophenyl)benzamide], for which the pest or weed control at 50 µg/cm2 in assay [1] (setting [4]) and in assay [2] (setting [5]) was 50 to 100% in each case. For the same compound, the YFM rating entry in assay [3] is on record as “A (80-100)”.
Regarding `O=C(Nc1ccc(F)c(Cl)c1)c1cc(NC(=O)C2C(c3cc(Cl)cc(Cl)c3)C2(Cl)Cl)ccc1Cl` (stereo not drawn) [PF122, 2-Chloro-N-(3-chloro-4-fluorophenyl)-5-(trans)-2,2-dichloro-3-(3,5-dichlorophenyl)cyclopropane-1-carboxamido)benzamide], the pest or weed control at 50 µg/cm2 in assay [1] (setting [4]) and in assay [2] (setting [5]) was 50 to 100% throughout. Also, the YFM rating entry in assay [3] is “B (More than 0-Less than 80)”.
`O=C(Nc1ccc(F)cc1F)c1cc(NC(=O)C2C(c3cc(Cl)cc(Cl)c3)[C@@H]2Cl)ccc1Cl` (stereo partly drawn) [F214, 2-Chloro-5-((2S)-2-chloro-3-(3,5-dichlorophenyl)cyclopropane-1-carboxamido)-N-(2,4-difluorophenyl)benzamide]: the pest or weed control at 50 µg/cm2 in assay [1] (setting [6]) and in assay [2] (setting [7]) was 50 to 100% in each case. In assay [3], the “YFM (Biological Results, rating)” value is “B (More than 0-Less than 80)”.
For `Cc1cccc(NC(=O)c2cc(NC(=O)[C@H]3[C@H](c4cc(Cl)cc(Cl)c4)C3(Cl)Cl)ccc2Cl)c1C#N` (relative stereo) [F304, 2-Chloro-N-(2-cyano-3-methylphenyl)-5-(trans-2,2-dichloro-3-(3,5-dichlorophenyl)cyclopropane-1-carboxamido)benzamide], the pest or weed control at 50 µg/cm2 in assay [1] (setting [6]) and in assay [2] (setting [7]) was 50 to 100% in each case. In assay [3], the “YFM (Biological Results, rating)” value is reported as “A (80-100)”.
For the compound `Nc1c(F)cc(F)cc1NC(=O)c1cc(NC(=O)[C@H]2[C@H](c3cc(Cl)cc(Cl)c3)C2(Cl)Cl)ccc1Cl` [F360, N-(2-Amino-3,5-difluorophenyl)-2-chloro-5-((1R,3R)-2,2-dichloro-3-(3,5-dichlorophenyl)cyclopropane-1-carboxamido)benzamide], the pest or weed control at 50 µg/cm2 in assay [1] (setting [6]) and in assay [2] (setting [7]) was 50 to 100% in each case. Besides, the “YFM (Biological Results, rating)” value in assay [3] is on record as “A (80-100)”.
In the case of `O=C(Nc1ccc(F)cc1)c1cc(NC(=O)[C@H]2[C@H](c3cc(Cl)cc(Cl)c3)C2(Cl)Cl)c(Cl)cc1Cl` (relative stereo) [F250, trans-2,4-Dichloro-5-(2,2-dichloro-3-(3,5-dichlorophenyl)cyclopropane-1-carboxamido)-N-(4-fluorophenyl)benzamide], the pest or weed control at 50 µg/cm2 in assay [1] (setting [6]) lay in the range of 0 to 50%. The “YFM (Biological Results, rating)” value in assay [3] was “B (More than 0-Less than 80)”.
On to `O=C(Nc1ccc(F)cc1F)c1cc(NC(=O)C2C(c3cc(F)c(F)c(F)c3)C2(Cl)Cl)ccc1Cl` (stereo not drawn) [F582, 2-Chloro-5-cis-(2,2-dichloro-3-(3,4,5-trifluorophenyl)cyclopropane-1-carboxamido)-N-(2,4-difluorophenyl)benzamide], for which, in assay [3], the YFM rating result is listed as “A (80-100)”.
The same measure, in the same setting: the entry for `O=C(Nc1cc(F)cc([N+](=O)[O-])c1)c1cc(NC(=O)[C@H]2[C@H](c3cc(Cl)cc(Cl)c3)C2(Cl)Cl)ccc1Cl` [F415, 2-Chloro-5-((1R,3R)-2,2-dichloro-3-(3,5-dichlorophenyl)cyclopropane-1-carboxamido)-N-(3-fluoro-5-nitrophenyl)benzamide] is “A (80-100)”; for `O=C(Nc1ccc(Cl)nn1)c1cc(NC(=O)[C@H]2[C@H](c3cc(Cl)cc(Cl)c3)C2(Cl)Cl)ccc1Cl` (relative stereo) [PF148, trans-2-Chloro-N-(6-chloropyridazin-3-yl)-5-(2,2-dichloro-3-(3,5-dichlorophenyl)cyclopropane-1-carboxamido)benzamide] it is “A (80-100)”.
As to `O=C(Nc1ccccc1)c1cc(NC(=O)[C@H]2[C@H](c3cc(Cl)cc(Cl)c3)C2(Cl)Cl)c(Cl)cc1Cl` (relative stereo) [F254, trans-2,4-Dichloro-5-(2,2-dichloro-3-(3,5-dichlorophenyl)cyclopropane-1-carboxamido)-N-phenylbenzamide], in assay [3], the “YFM (Biological Results, rating)” value is “A (80-100)”.
Consider `O=C(Nc1ncc(F)cc1F)c1cc(NC(=O)[C@H]2[C@H](c3cc(Cl)cc(Cl)c3)C2(Cl)Cl)ccc1Cl` [F309, 2-Chloro-5-((1R,3R)-2,2-dichloro-3-(3,5-dichlorophenyl)cyclopropane-1-carboxamido)-N-(3,5-difluoropyridin-2-yl)benzamide], for which the “YFM (Biological Results, rating)” value in assay [3] is on record as “A (80-100)”.
For `N#Cc1ccc(NC(=O)c2cc(NC(=O)C3C(c4cc(Cl)cc(Cl)c4)C3(Cl)Cl)ccc2Cl)cc1Cl` (stereo not drawn) [PF120, 2-Chloro-N-(3-chloro-4-cyanophenyl)-5-(trans)-2,2-dichloro-3-(3,5-dichlorophenyl)cyclopropane-1-carboxamido)benzamide], in assay [3], the YFM rating entry is given as “A (80-100)”.
